The test system of series [1] is MRSA (ATCC BAA1707). The series is described as follows: MRSA vs MSSA detection on probe-embedded agar with/without cefoxitin, 96-well plates. The format is cell-based, Staphylococcus aureus. The settings on record: 1 μM probe in TSA-based media with/without cefoxitin, 37° C. As for the experimental part: Tryptic Soy Agar (BD Cat. #236950) was autoclaved according to the manufacturer's instructions and cooled down to 50-60° C. Then, pre-sterilized additives, including Tris*HCl (pH 9.0) (adjusted to 50 mM with the following stock solution: Rockland Cat. #MB028-1000) and CaCl2) (adjusted to 15 mM with the following stock solution: Sigma-Aldrich Cat. #21115-100ML) were added. 1 μM or 2 μM AttoPoly T 4mer and 4 μg/mL Cefoxitin (Alfa Aesar Cat. #AAJ6689103) were also included where indicated. 90 μL of the agar mixtures were pipetted into the wells of clear-bottom 96-well plates (Thermo Scientific, nunc Cat. #265301) and allowed to solidify. […]
S. aureus (ATCC 29213) cultures were grown in Tryptic Soy Broth (BD Cat. #211825) overnight at 37° C. with shaking at 300-400 rpm. […] Plates were incubated at 37° C. and imaged using an IO-Rodeo fluorescent imager (IO-Rodeo, Large, Blue LED) and an iPhone 8 camera, and fluorescence was also concurrently measured with a Synergy H1 microplate reader (BioTek).
(§1) Two fluorescence measurement formats were used to detect the growth of target bacterial species on agar growth media. […] The fluorescence of the 96-well plates was also measured with a Bio-Tek fluorescence plate-reader using fluorescence filters tailored for green fluorescence, providing quantitative data.

The test system of series [2] is S. aureus (ATCC 29213). The series is described as follows: S. aureus detection on probe-embedded agar Petri dishes (fluorescence imaging). The settings on record: agar plates streaked with <1000 cells, 37° C., fluorescence plate imaging (SASelect: chromogenic agar). The format is cell-based, Staphylococcus aureus. As for the experimental part: (§2) Tryptic Soy Agar (BD Cat. #236950) was autoclaved according to the manufacturer's instructions and cooled down to 50-60° C. Then, pre-sterilized components, including Tris-HCl (pH 9.0) (adjusted to 50 mM using the following stock solution: Rockland Cat. #MB028-1000) and CaCl2) (adjusted to 15 mM using the following stock solution: Sigma-Aldrich Cat. #21115-100ML) were added and the resulting mixture was poured into 60 mm Petri dishes (Corning Cat. #430589). 1 μM or 2 μM AttoPoly T 4mer (IDT, custom order) and 4 μg/mL Cefoxitin (Alfa Aesar Cat. #AAJ6689103) were also included where indicated. The agar mixtures were allowed to solidify, then the Petri dishes were sealed with parafilm (Bemis Cat. #999) and stored at 4° C., protected from light.
S. aureus (ATCC 29213) cultures were grown in Tryptic Soy Broth (BD Cat. #211825) overnight at 37° C. with shaking at 300-400 rpm. Dilutions to […] were made and these were streaked on agar Petri dishes with 1 μL calibrated inoculation loops (Fisher Scientific, Fisherbrand Cat. #22363601). […]
as §1

Series [3] has as its system S. lugdunensis (ATCC 700328). Nature of the series: Specificity control on probe-embedded agar plates: S. lugdunensis. The format is cell-based, Staphylococcus lugdunensis. The settings on record: 8 hours after plating. As for the experimental part: as §2
(§3) Two fluorescence measurement formats were used to detect the growth of target bacterial species on agar growth media. Agar media poured in 60 mm dishes or distributed to the wells of 96-well clear-bottomed plates were placed on an LED transilluminator (IORodeo) that emits blue light. A light filter was placed over the plates or dishes to block the LED-emitted light, but the filter still allows green light to pass, which is captured with an iPhone camera. […] The fluorescence of the 96-well plates was also measured with a Bio-Tek fluorescence plate-reader using fluorescence filters tailored for green fluorescence, providing quantitative data.

Series [4] relates to E. coli (ATCC 25922). Nature of the series: Specificity control on probe-embedded agar plates: E. coli. It counts as cell-based, Escherichia coli. The settings on record: 8 hours after plating. As for the experimental part: as §2, §3
Series [5] relates to S. pyogenes (ATCC 12344). Nature of the series: S. pyogenes detection on probe-embedded agar plates. The format is cell-based, Streptococcus pyogenes. The settings on record: agar plates with 0.5 μM probe, streaked with 10,000 cells, 37° C. The protocol:
Tryptic Soy Agar (BD Cat. #236950) was autoclaved according to the manufacturer's instructions and cooled down to 50-60 degrees C. Then, pre-sterilized components including Tris-HCl (pH 8.0) (adjusted to 50 mM with the following stock solution: Fisher Scientific Cat. #BP1758-100) and MgCl2 (adjusted to 20 mM with the following stock solution: Invitrogen Cat. #AM9530G) were added and the resulting mixture was poured into 60 mm Petri dishes (Corning Cat. #430589). 0.5 μM Self-Hyb ATTO and 2 μg/mL Colistin (Alfa Aesar Cat. #AAJ67415XF) were also included where indicated. The agar mixtures were allowed to solidify. Then the Petri dishes were sealed with parafilm (Bemis Cat. #999) and stored at 4° C., protected from light.
S. pyogenes (ATCC® 12344) cultures were grown in Tryptic Soy Broth (BD Cat. #211825) overnight at 37° C. with shaking at 300-400 rpm. Dilutions to […] were made and streaked on agar Petri dishes with 1 μL calibrated inoculation loops (Fisher Scientific, Fisherbrand Cat. #22363601). […]
as §1

For series [6], the system named is nuclease of S. pyogenes. The series is described as follows: Probe sensitivity to S. pyogenes nuclease. It counts as biochemical.
Series [7] deals with S. pyogenes (ATCC 12344). Nature of the series: S. pyogenes detection on selective fluorogenic agar in 96-well plates. It counts as cell-based, Streptococcus pyogenes. The settings on record: 0.5 μM probe, 96-well plate, in the presence of colistin (2 μg/ml), 37° C. The protocol: Tryptic Soy Agar (BD Cat. #236950) was autoclaved according to the manufacturer's instructions and cooled down to 50-60° C. Then, pre-sterilized components, including Tris-HCl (pH 8.0) (adjusted to 50 mM with the following stock solution: Fisher Scientific Cat. #BP1758-100) and MgCl2 (adjusted to 20 mM with the following stock solution: Invitrogen Cat. #AM9530G) were added. 0.5 μM Self-Hyb ATTO and 2 μg/mL Colistin (Alfa Aesar Cat. #AAJ67415XF) were also included where indicated. 90 μL of the agar mixtures were pipetted into the wells of clear-bottom 96-well plates (Thermo Scientific, nunc Cat. #265301) and allowed to solidify. […]
S. pyogenes (ATCC® 12344™) cultures were grown in Tryptic Soy Broth (BD Cat. #211825) overnight at 37° C. with shaking at 300-400 rpm. […] Plates were incubated at 37° C. and imaged with an IO-Rodeo fluorescent imager (IO-Rodeo, Large, Blue LED) and an iPhone 8 camera, and fluorescence was also measured concurrently with a Synergy H1 microplate reader (BioTek).
as §1

Series [8] concerns the target T1, Endonuclease I (Escherichia coli, UniProt P25736).
T1 sequence (P25736 23-235): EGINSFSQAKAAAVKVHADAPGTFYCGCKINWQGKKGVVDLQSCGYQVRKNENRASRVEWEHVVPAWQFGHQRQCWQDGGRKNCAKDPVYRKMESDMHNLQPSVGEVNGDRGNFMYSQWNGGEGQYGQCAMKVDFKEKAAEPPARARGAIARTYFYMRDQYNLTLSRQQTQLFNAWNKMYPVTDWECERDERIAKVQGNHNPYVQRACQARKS
The series is described as follows: Probe sensitivity to Endonuclease I. The format is biochemical.

For series [9], the system named is E. coli (ATCC 25922). The series is described as follows: E. coli detection on fluorogenic agar in 96-well plates. The format is cell-based, Escherichia coli. The settings on record: 0.5 μM probe in TSA-based media, 96-well plate, 37° C.; vs S. aureus and S. pyogenes. The protocol:
Tryptic Soy Agar (BD Cat. #236950) was autoclaved according to the manufacturer's instructions and cooled down to 50-60° C. Then, pre-sterilized components, including Tris-HCl (pH 8.0) (adjusted to 50 mM with the following stock solution: Fisher Scientific Cat. #BP1758-100), MgCl2 (adjusted to 20 mM with the following stock solution: Invitrogen Cat. #AM9530G), and Triton® X-100 (adjusted to 1% with the following stock solution: Fisher Scientific Cat. #50-751-7090). 0.5 μM Self-Hyb ATTO was also included where indicated. […]
E. coli (ATCC 25922) cultures were grown in Tryptic Soy Broth (BD Cat. #211825) overnight at 37° C. with shaking at 300-400 rpm. […] Plates were incubated at 37° C. and imaged using an IO-Rodeo fluorescent imager (IO-Rodeo, Large, Blue LED) and an iPhone 8 camera, and fluorescence was also measured concurrently with a Synergy H1 microplate reader (BioTek).
as §1

Series [10] deals with most nucleases. The series is described as follows: Probe resistance to nucleases in general. It counts as biochemical.
The target of series [11] is micrococcal nuclease of S. aureus (Staphylococcus aureus, UniProt P00644). The series is described as follows: Probe sensitivity to micrococcal nuclease. The format is biochemical.

d = 2'-deoxy (DNA); m = 2'-O-methyl

With “5′-ATTO488-TTTT-ZEN-RQSp-3′ [AttoPoly T 4mer]”, in series [1], the “time at which MRSA can be distinguished from MSSA” value was 8 to 10 h. The “time to detection of S. aureus colonies after plating” value in [2] was not above 8 h. In [3], the “fluorescence produced by S. lugdunensis on probe-embedded agar” value is “did not produce fluorescence”. For the same substance, the “fluorescence produced by E. coli on probe-embedded agar” value in series [4] is “did not produce fluorescence”.

As to “5′-ATTO488-fC-fU-fA-fC-fG-fU-fA-fG-ZEN-RQSp-3′ (CUACGUAG; 2'-fluoro; ATTO488, ZEN, RQSp quencher; (1)..(8) Each base pair in this sequence is a 2′-fluoro modified nucleotide. Please see Table 1 of the Specification.) [Self-Hyb ATTO]”, in [5], the “time to detection of S. pyogenes” value was found to be 19 h. The “sensitivity to a nuclease of S. pyogenes” value in series [6] is reported as “sensitive”. In addition, the “time to detection of low concentrations of S. pyogenes” value in [7] is not above 10 h. Further, the “sensitivity to Endonuclease I” value in [8] was “sensitive”. Moreover, the “time to specific detection of E. coli” value in [9] turned out to be 8 h.

In the case of “CTACGTAG (DNA, backbone not given here; further chemistry not fully specified) [DNA-SH]”, in series [8], the “sensitivity to Endonuclease I” value is “sensitive”.

Regarding “fUfUfUfAfUfGfCfAfUfAfAfA (UUUAUGCAUAAA; all 2'-fluoro, backbone not given here; thiol or fluorophore label) [SH-Fl 5UUU]”, the “sensitivity to a nuclease of S. pyogenes” value in series [6] is given as “sensitive”. Also, the “sensitivity to Endonuclease I” value in series [8] is “sensitive”.

On to “mCmUmAmCmGmUmAmG (CUACGUAG; all 2'-O-methyl, backbone not given here; thiol modification) [2′-OMe SH]”, for which, in [10], the resistance to nucleases result was “resistant to most nucleases”.

Consider “mUTTmUmUmUmUmUmUmUmU (UTTUUUUUUUU; sugars from the 5' end m1 d2 m8, backbone not given here) [P2&3 TT Probe]”, for which, in [11], the “sensitivity to micrococcal nuclease of S. aureus” value was “sensitive”.

Values taken from patent US20220380828A1, “MICROBIAL DETECTION PLATFORM” (NUCLEASE PROBE TECHNOLOGIES, INC., priority 2019, published 2022).
